Literature values in US6576633B1, “Stable liquid antimicrobial suspension compositions containing quarternaries prepared from hexamethylenetetramine and certain halohydrocarbons” (The Dow Chemical Company, priority 1996, dated 2003).

Conditions: conventional 30 percent aqueous solution; within one month

Row | Compound | chemical degradation [%]
1 | ClC=CC[N+]12CN3CN(CN(C3)C1)C2.[Cl-] (mixture of isomers) [cis/trans-compound, 1-(3-chloroallyl)-3,5,7-triaza-1-azoniaadamantane chloride] | ~30
2 | ClC=CC[N+]12CN3CN(CN(C3)C1)C2.[Cl-] [cis-compound, 1-(3-chloroallyl)-3,5,7-triaza-1-azoniaadamantane chloride] | ~30
